What was measured:
[1] = cited from earlier work
[2] = test system: CYP3A; settings: both, human, plasma, po, 2 mg, probe midazolam
[3] = Clinical DDI study in healthy adults; format: in vivo, human; settings: for AUC(0-t) / Cmax: both, human, plasma, oral
[4] = test system: CYP3A; design: species or system human; settings: refined to recover observed midazolam AUCR; 1/18 of the in vitro k inact
[5] = test system: infants with Type 1 SMA; settings: cited from earlier work
[6] = PBPK model; cited from earlier work

## Cc1ncc2n1-c1ccc(Cl)cc1C(c1ccccc1F)=NC2 [midazolam]
[1]; adults
  UGT1A4 contribution to clearance: 1–2%
[1]
  FG (intestinal availability): 0.55
[2]
  AUC(0-t): 19.9 ng·h/mL
  Cmax: 7.65 ng/mL

## Cc1cn2nc(-c3cc(=O)n4cc(N5CCNC6(CC6)C5)ccc4n3)cc(C)c2n1 [risdiplam, Risdiplam]
[3]; 14 days, alone and coadministered with midazolam, healthy adults
  tolerability: well tolerated
[3]; 5 mg
  AUC(0-t): 1250 ng·h/mL
  Cmax: 78.6 ng/mL
[3]; 8 mg
  AUC(0-t): 1730 ng·h/mL
  Cmax: 113 ng/mL
[4]
  in vivo k inact: in vivo k inact ^e = 0.22/hour
[5]
  increase in the SMN protein: approximately twofold
[6]
  hepatic intrinsic CL via CYP3A share of clearance: 20%
  hepatic intrinsic CL via FMO3 share of clearance: 75%
  renal CL (CLR) share of clearance: 5%

— paper PMC9291816 (Clinical Pharmacology and Therapeutics, 2021)
